Assay results taken from patent US20150005347A1, “NITROGEN-CONTAINING HETEROCYCLIC DERIVATIVE HAVING 2-IMINO GROUP AND PEST CONTROL AGENT INCLUDING THE SAME” (MEIJI SEIKA PHARMA CO., LTD., priority 2012, published 2015).
Like-named read-outs stand apart in the source and are kept apart here.

Legend:
Assay type in all cases: in vivo
[1] = system: Trigonotylus caelestialium; assay: Pest control test of Trigonotylus caelestialium, wheat seedling dipping; settings: Trigonotylus caelestialium
Method in brief: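 Wheat seedlings (4 days post-sowing) dipped 30 s in compound in 50% acetone water with 0.05% Tween20, air-dried, then exposed to two second-instar larvae in a lidded glass tube at 25° C, water supplied from below. Larval mortality (%) = dead/(dead+survived)×100.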

housefly instar larvae = assay: Pest control test of housefly instar larvae, treated bait; settings: Musca domestica, read-out: mortality of larvae, chrysalises and adults
Description: Test Example 22 Pest Control Test of Housefly Instar Larvae
Compound 1-20 was blended with an extremely small amount of DMSO, and then the resulting mixture was dissolved in deionized water to adjust the drug solution. 10 ml of the drug solution adjusted to be 30 ppm was added to 10 g of powder in which wheat bran, MF feed (Oriental Yeast Co., Ltd.) and dry yeast had been mixed in a ratio of 25:5:1, and the mixture was mixed well to prepare a bait for housefly instar larvae. A 50 ml Falcon tube was slightly filled with the bait including the compound, and 20 eggs were released thereto. The mouth of the Falcon tube was covered with a mesh-topped lid, and the tube was allowed to stand at 25° C. Twenty days after the drug treatment, the numbers of instar larvae, chrysalises and adults were measured, and the mortality of larvae, chrysalises and adults was calculated by the following equation. The test was performed by repeating each treatment twice.
Mortality of larvae,chrysalises and adults(%)={number of dead larvae,chrysalises and adults/(number of survived larvae,chrysalises and adults+number of dead larvae,chrysalises and adults)}×100

Spodoptera litura = assay: Pest control test against Spodoptera litura, cabbage leaf disk foliar spray; settings: Spodoptera litura, foliar
Description: Test Example 2 Pest Control Test Against Spodoptera litura
A leaf disk having a diameter of 5.0 cm was cut out from a cabbage in pot culture, and a drug solution of the compound of the present invention at a predetermined concentration, which had been prepared so as to be a 50% acetone water (0.05% Tween20 available), was sprayed to the leaf disk. After an air drying process, third instar larvae were released thereto. Thereafter, the larvae were left to stand in a thermostatic chamber (16 hours of light period-8 hours of dark period) at 25° C. […] Test in duplicate.
(§1) Mortality of larvae(%)={number of dead larvae/(number of survived larvae+number of dead larvae)}×100

Nephotettix cincticeps = assay: Pest control test of Nephotettix cincticeps, soil irrigation treatment; settings: for % Mortality, Test Example 14 Nephotettix cincticeps: soil irrigation treatment
Description: Test Example 14 Pest Control Test of Nephotettix cincticeps
(§2) A rice seedling in pot culture was subjected to soil irrigation treatment with a drug solution of the compound of the present invention at a predetermined concentration, which had been prepared so as to be a 10% acetone water. Three days after the treatment, five second instar larvae of Nephotettix cincticeps were each released thereto. Thereafter, the larvae were left to stand in a thermostatic chamber (16 hours of light period-8 hours of dark period) at 25° C. […] The test was performed in duplicate.
as §1

Ctenocephalides felis = assay: Pest control test of Ctenocephalides felis on the body surface of a dog; settings: 72 h, read-out: mortality of insects
Description: Test Example 26 Pest Control Test of Ctenocephalides felis
(§3) Three petri dishes with a diameter of 9 cm and a height of 1 cm were adhered to the back of a dog. Compound 1-20 of the present invention was dissolved in ethanol so as to be 5.35 mg/mL, and the mixture was added dropwise to the body surface of the dog in the petri dish. The petri dish was sufficiently dried, and then twenty insects of Ctenocephalides felis were released thereto. Each dog was housed in a cage and reared under conditions of 10 hours of light period and 14 hours of dark period at 23° C. Three days after the release, the petri dishes were detached therefrom to measure the numbers of living and dead insects of Ctenocephalides felis and blood-sucking individuals, and the mortality of insects was calculated according to the following equation.
Mortality of insects(%)={number of dead insects/(number of survived insects+number of dead insects)}×100

[2] = system: Haemaphysalis longicornis; assay: Pest control test of Haemaphysalis longicornis on the body surface of a dog; settings: 72 h, read-out: mortality of mites
Description: Test Example 25 Pest Control Test of Haemaphysalis longicornis
as §3, with “thirty young mites” for “twenty insects”, “Haemaphysalis longicornis” for “Ctenocephalides felis”, “mites” for “insects of Ctenocephalides felis”, “individuals of young mites,” for “individuals,”, “mites” for “insects”
Mortality of mites(%)={number of dead mites/(number of survived mites+number of dead mites)}×100

[3] = system: susceptible populations of Laodelphax striatella; assay: Soil irrigation test, susceptible populations of Laodelphax striatella; settings: Rate 0.005 mg/pot
Description: as §2, with “Three days after the treatment, five second instar larvae of Nephotettix cincticeps were each released thereto.” left out
as §1
Further, for comparison, the test against a populations of Laodelphax striatella which is highly susceptible to fipronil was performed by the same method as described above, and the results thereof are shown in Table 45.
In addition, for the origin of test pests, bugs collected within the Kumamoto prefecture in 2006 as the drug resistant Laodelphax striatella, and bugs successively reared indoors for a long time as the susceptible populations of Laodelphax striatella were used.

[4] = 72 h, read-out: mortality of larvae
[5] = read-out: % Mortality, Test Example8 Trigonotylus caelestialium

SMILES: FC(F)(F)C(=S)/N=c1\ccccn1Cc1ccc(Cl)nc1 [Compound 1-20, N-[1-((6-chloropyridin-3-yl)methyl)pyridin-2(1H)-ylidene]-2,2,2-trifluoroethanethioamide]
- mortality at 10 ppm [1, 4]: ≥ 80%
- mortality at 50 ppm [1, 4]: ≥ 80%
- mortality at 2 ppm [1, 5]: 50%
- mortality at 10 ppm [1, 5]: 100%
- mortality at 50 ppm [1, 5]: 100%
- mortality at 30 ppm (housefly instar larvae): 100%
- mortality at 100 ppm (Spodoptera litura; [4]): ≥ 80%
- mortality at 100 ppm (Spodoptera litura; read-out: % Mortality, Test Example2 Spodoptera litura): 90%
- % Mortality, Test Example 14 Nephotettix cincticeps (Nephotettix cincticeps; 0.0001 mg/pot): 67%
- % Mortality, Test Example 14 Nephotettix cincticeps (Nephotettix cincticeps; 0.001 mg/pot): 67%
- % Mortality, Test Example 14 Nephotettix cincticeps (Nephotettix cincticeps; 0.01 mg/pot): 100%
- mortality of larvae (Nephotettix cincticeps; soil irrigation, 0.05 mg/seedling, three days after release): ≥ 80%
- mortality at 5350 µg/mL (Ctenocephalides felis): 100%
- mortality at 5350 µg/mL [2]: 100%
- Insecticidal effects against Laodelphax striatella (mortality of larvae %), Susceptible populations six days after the treatment [3]: 85%
